Test results taken from patent US10766869B2, “Triazoles for the treatment of demyelinating dieases” (Vertex Pharmaceuticals Incorporated, priority 2015, dated 2020).
Like-named read-outs stand apart in the source and are kept apart here.

Tested on: primary rat mixed cortical cells
Test: In vitro myelination assay (MBP positive myelin strands, fold myelin pixels above background)
Assay type: cell-based
Conditions: Rattus norvegicus; for fold induction at 1 µM: 1.0 μM compound; for fold induction at 10 µM: 10.0 μM compound
Description: In Vitro Myelination Assay
Compounds were screened for their ability to induce myelination using a primary rat mixed cortical cell culture assay, which contains neurons, oligodendrocyte precursor cells, oligodendrocytes, astrocytes and microglia. The assay quantifies myelination by measuring myelin basic protein (MBP) immunofluorescent positive myelin strands from images taken using a Cellomics Array Scan (model Arrayscan VTI HCS Reader) or a Molecular Devices Image Xpress (model IXM XL) high content imager. The myelin strands were quantitated using a custom created myelin detection software program. Test compounds were dissolved in DMSO to make a 10 mM initial stock solution. Dilutions were made in myelination medium to obtain the final solutions for the assay and were tested in primary rat mixed cortical cells at selected doses.
Primary rat mixed cortical cells were prepared from harvested cerebral cortices from postnatal day 1 (P1) rats (P1 Rat CD® IGS pups) were purchased from Charles River) in Complete Dissociation Medium, wherein the meninges were removed and the cortical tissue chopped with a razor blade into ˜1 mm^3 pieces. Tissue from 1-3 pups was collected and placed into 15 ml conical tubes in a total volume of 5 ml of Complete Dissociation Medium. Activated papain (3 ml) was added to each 15 ml conical tube and tissue was incubated at 37° C. for 30 minutes. After the 30 minute incubation, DNase (Sigma D4527; 75 μl of a 1 mg/ml stock) was added to each tube, followed by mechanical trituration using a 2 ml serological pipette and autopipettor to gently dissociate the tissue. Following trituration, larger tissue pieces were allowed to settle by gravity, and the supernatant containing dissociated cells was transferred to a 50 ml conical tube with 4 ml of trypsin inhibitor. Cells were pelleted by centrifugation, resuspended in myelination medium and filtered through a 40 μm filter. Cells were then seeded in 96-well plates (BD Biosciences, Black, PDL-coated, Cat. No. 356640) at 87,500-95,000 cells/well in a final volume of 200 μl of Myelination Medium in the presence or absence of compound and cultured for 14 days in a humidified 37° C. incubator with 5% CO2. Half the medium was removed and replaced with fresh medium containing 1× compound on days 6 and 10. Using a Biotek automatic plate washer (model Biomek® FXP Laboratory Automation Workstation), cells were fixed with 4% paraformaldehyde on day 14, washed with PBS and blocked in 5% normal goat serum (Vector Laboratories, S-1000) in 0.1% PBS-TritonX-100 (PBST) for 1 hour. Cells were stained with 1:500 anti-MBP (Covance, cat # SMI99) primary antibody in 1% normal goat serum in 0.1% PBST for 2 hours at room temperature followed by 2 washes with PBST. A final incubation in secondary antibody (1:1000, Invitrogen, Alexa-488 anti-mouse IgG2b) and 1:10,000 Hoechst dye in 1% normal goat serum in 0.1% PBST was performed for 2 hours at room temperature. Plates were washed with PBS and then scanned on a Cellomics Array Scan using a 10× objective (25 images per well) or the Image Xpress using a 10× objective (9 image per well). Images were analyzed using Vertex myelin detection software (described below) to quantify total MBP myelin pixels per well. Fold myelin pixels above background at two concentrations (1.0 μM and 10.0 μM) relative to baseline of no added compound are reported below in Table 4. Standard deviation for each compound concentration was calculated using all replicates and using a standard deviation formula commonly used in the art.
One of skill in the art would recognize that for this type of primary neuronal mixed cell assay variability between different assay runs is to be expected even though the protocol is the same for each assay run. For instance, variability may be due to small differences in cell viability, cell density, age of the animals, etc.
Vertex Myelin Detection Software: […]

[1] = relative to baseline of no added compound, read-out: Fold myelin pixels above background, 1.0 μM
[2] = relative to baseline of no added compound, read-out: Fold myelin pixels above background, 10.0 μM
[3] = read-out: Fold myelin pixels above background relative to baseline of no added compound
[4] = relative to baseline of no added compound, read-out: Fold myelin pixels above background

| Structure (SMILES) | fold induction at 1 µM [1] | fold induction at 10 µM [2] | fold induction at 1 µM [3] | fold induction at 10 µM [3] | further results |
| --- | --- | --- | --- | --- | --- |
| Cc1cc(Nc2ncn(-c3ccccc3)n2)cc(N2CCN3CCC[C@@H]3C2)c1 [Compound 157, N-[3-[(8aR)-3,4,6,7,8,8a-hexahydro-1H-pyrrolo[1,2-a]pyrazin-2-yl]-5-methyl-phenyl]-1-phenyl-1,2,4-triazol-3-amine] | 1000 to 10000 | 1000 to 10000 | – | – | – |
| Cc1cc(Nc2ncn(-c3cc(F)cc(F)c3)n2)cc(N2CCN(CCOCCO)CC2)c1 [Compound 1033, 2-[2-[4-[3-[[1-(3,5-difluorophenyl)-1,2,4-triazol-3-yl]amino]-5-methyl-phenyl]piperazin-1-yl]ethoxy]ethanol] | – | – | 1 to 10 | ≤ 1 | – |
| Cc1cc(Nc2ncn(-c3ccc(F)c(F)c3)n2)cc(N2CCN(C3(C)COC3)CC2)c1 [Compound 633, 1-(3,4-difluorophenyl)-N-[3-methyl-5-[4-(3-methyloxetan-3-yl)piperazin-1-yl]phenyl]-1,2,4-triazol-3-amine] | – | – | – | – | fold induction at 1 µM [4]: 10 to 100; fold induction at 10 µM [4]: 10 to 100 |
| Fc1cc(F)cc(-n2cnc(Nc3cc(Cl)cc(N4CC(N5CCOCC5)C4)c3)n2)c1 [Compound 723, N-[3-chloro-5-(3-morpholinoazetidin-1-yl)phenyl]-1-(3,5-difluorophenyl)-1,2,4-triazol-3-amine] | – | – | – | – | fold induction at 1 µM [4]: 10 to 100; fold induction at 10 µM [4]: 100 to 1000 |
| COc1cc(F)cc(-n2cnc(Nc3cc(C4CC4)cc(N4CCN(C5COC5)CC4)c3)n2)c1 [Compound 388, N-[3-cyclopropyl-5-[4-(oxetan-3-yl)piperazin-1-yl]phenyl]-1-(3-fluoro-5-methoxy-phenyl)-1,2,4-triazol-3-amine] | – | – | – | – | fold induction at 1 µM [4]: 10 to 100; fold induction at 10 µM [4]: ≤ 1 |
| COc1ccc(-n2cnc(Nc3cc(C4CC4)nc(N4CCC(C)CC4)c3)n2)cc1OC [Compound 22, 2-cyclopropyl-N-[1-(3,4-dimethoxyphenyl)-1,2,4-triazol-3-yl]-6-(4-methyl-1-piperidyl)pyridin-4-amine] | 100 to 1000 | 100 to 1000 | – | – | – |
| Cc1cc(NCC2CN(C(CO)CO)C2)cc(Nc2ncn(-c3cc(F)cc(F)c3)n2)c1 [Compound 946, 2-[3-[[3-[[1-(3,5-difluorophenyl)-1,2,4-triazol-3-yl]amino]-5-methyl-anilino]methyl]azetidin-1-yl]propane-1,3-diol] | – | – | ≤ 1 | ≤ 1 | – |
| Fc1ccc(-n2cnc(Nc3cc(F)cc(N4CCCC4)c3)n2)cc1 [Compound 167, 1-(4-fluorophenyl)-N-(3-fluoro-5-pyrrolidin-1-yl-phenyl)-1,2,4-triazol-3-amine] | ≤ 1 | 100 to 1000 | – | – | – |
| Cc1cc(Nc2ncn(-c3cc(C)cc(F)c3)n2)cc(N2CCN(C3COC3)CC2)c1 [Compound 323, 1-(3-fluoro-5-methyl-phenyl)-N-[3-methyl-5-[4-(oxetan-3-yl)piperazin-1-yl]phenyl]-1,2,4-triazol-3-amine] | 1000 to 10000 | 100 to 1000 | – | – | – |
| COCC1(CNc2cc(C)cc(Nc3ncn(-c4cc(F)cc(F)c4)n3)c2)CC1 [Compound 937, N1-[1-(3,5-difluorophenyl)-1,2,4-triazol-3-yl]-N3-[[1-(methoxymethyl)cyclopropyl]methyl]-5-methyl-benzene-1,3-diamine] | – | – | 1 to 10 | ≤ 1 | – |
| Cc1cc(NCCN2CC(C)OCC2C)cc(Nc2ncn(-c3cc(F)cc(F)c3)n2)c1 (centres unmarked) [Compound 1003, N1-[1-(3,5-difluorophenyl)-1,2,4-triazol-3-yl]-N3-[2-(2,5-dimethylmorpholin-4-yl)ethyl]-5-methyl-benzene-1,3-diamine] | – | – | 10 to 100 | ≤ 1 | – |
| CN1CCN(c2cc(Nc3ncn(-c4cc(F)cc(F)c4)n3)cc(N3CCN(C)CC3)c2)CC1 [Compound 657, N-[3,5-bis(4-methylpiperazin-1-yl)phenyl]-1-(3,5-difluorophenyl)-1,2,4-triazol-3-amine] | – | – | – | – | fold induction at 1 µM [4]: 1 to 10; fold induction at 10 µM [4]: ≤ 1 |
| CCOc1nccc(-n2cnc(Nc3cc(C4CC4)cc(N4CCN(C5COC5)CC4)c3)n2)n1 [Compound 286, N-[3-cyclopropyl-5-[4-(oxetan-3-yl)piperazin-1-yl]phenyl]-1-(2-ethoxypyrimidin-4-yl)-1,2,4-triazol-3-amine] | 100 to 1000 | 100 to 1000 | – | – | – |
| Fc1cc(F)cc(-n2cnc(Nc3cc(C(F)(F)F)cc(N4CCOCC4)n3)n2)c1 [Compound 674, N-[1-(3,5-difluorophenyl)-1,2,4-triazol-3-yl]-6-morpholino-4-(trifluoromethyl)pyridin-2-amine] | – | – | – | – | fold induction at 1 µM [4]: 1 to 10; fold induction at 10 µM [4]: 1 to 10 |
| Cc1cc(NCC2CN(C3CC3)CCO2)cc(Nc2ncn(-c3cc(F)cc(F)c3)n2)c1 (centres unmarked) [Compound 968, N3-[(4-cyclopropylmorpholin-2-yl)methyl]-N1-[1-(3,5-difluorophenyl)-1,2,4-triazol-3-yl]-5-methyl-benzene-1,3-diamine] | – | – | 1 to 10 | 1 to 10 | – |
| Cc1cc(Nc2ncn(-c3cc(F)cc(F)c3)n2)cc(N2C[C@H]3C[C@@H]2CN3C2COC2)c1 [Compound 185, 1-(3,5-difluorophenyl)-N-[3-methyl-5-[(1R,4R)-2-(oxetan-3-yl)-2,5-diazabicyclo[2.2.1]heptan-5-yl]phenyl]-1,2,4-triazol-3-amine] | 100 to 1000 | 1 to 10 | – | – | – |
| Cc1cc(C#CC2CC2)cc(Nc2ncn(-c3cc(F)cc(F)c3)n2)c1 [Compound 798, N-[3-(2-cyclopropylethynyl)-5-methyl-phenyl]-1-(3,5-difluorophenyl)-1,2,4-triazol-3-amine] | – | – | 1 to 10 | 1 to 10 | – |
| Cc1cc(Nc2ncn(-c3ccc(F)c(F)c3)n2)cc(N[C@H]2C[C@@H](N3CCOCC3)C2)c1 (single isomer, unassigned) [Compound 826, N1-[1-(3,4-difluorophenyl)-1,2,4-triazol-3-yl]-5-methyl-N3-(3-morpholinocyclobutyl)benzene-1,3-diamine] | – | – | 10 to 100 | ≤ 1 | – |
| Cc1cc(Nc2ncn(-c3cc(F)cc(F)c3)n2)cc([C@@]2(O)CCN(C3COC3)C2)c1 (single isomer, unassigned) [Compound 101] | 1000 to 10000 | 1 to 10 | – | – | – |
| Cc1cc(Nc2ncn(-c3cc(F)cc(F)c3)n2)cc(NC2CCN(CC3CCOC3)CC2)c1 (centres unmarked) [Compound 1045, N3-[1-(3,5-difluorophenyl)-1,2,4-triazol-3-yl]-5-methyl-N1-[1-(tetrahydrofuran-3-ylmethyl)-4-piperidyl]benzene-1,3-diamine] | – | – | 1 to 10 | ≤ 1 | – |
| Cc1cc(NCC2CN(C(=O)OC(C)(C)C)C2)cc(Nc2ncn(-c3cc(F)cc(F)c3)n2)c1 [Compound 1084, tert-butyl 3-[[3-[[1-(3,5-difluorophenyl)-1,2,4-triazol-3-yl]amino]-5-methyl-anilino]methyl]azetidine-1-carboxylate] | – | – | 10 to 100 | 1 to 10 | – |
| Cc1cc(Nc2ncn(-c3cc(F)cc(F)c3)n2)cc(C(=O)N2CCN(C3COC3)CC2)c1 [Compound 864, [3-[[1-(3,5-difluorophenyl)-1,2,4-triazol-3-yl]amino]-5-methyl-phenyl]-[4-(oxetan-3-yl)piperazin-1-yl]methanone] | – | – | 10 to 100 | 10 to 100 | – |
